According to patent publication US5100905A, “Method for inhibiting growth of bacteria, fungi or algae by treatment with biocide composition” (Rohm and Haas Company, priority 1991, dated 1992):
Values joined by “and” are separate entries in the source; they are usually repeats but may differ in a detail not shown here. Identical values can stand only once. Like-named read-outs stand apart in the source and are kept apart here.

Columns and labels:
skin of guinea pigs = assay: Sensitization study, closed-patch test of Buehler; assay type: in vivo, guinea pig
Method: The study was conducted to determine the sensitization potential of the synergistic combination of 3.5% 651 and 96.5% 573. The results were compared to the sensitization potential of 886 (containing 75% 651 and 25% 573) and pure 573.
The closed-patch test of Buehler Current Concepts in Cutaneous Toxicology, (New York: Academic Press 1970), pp. 25-40, is used to investigate the sensitization potential of the materials in the guinea pig. The combination (1.5% total active ingredient) at aqueous concentrations of 1000, 5000, 10000 and 15000 ppm a.i., the 886 (13.9% total active ingredient) at aqueous concentrations of 250, 500 and 750 ppm a.i. and the 573 (solid containing 99.5% total active ingredient) at aqueous concentrations of 5000, 15000 and 30000 ppm a.i. were applied topically to the skin of guinea pigs by means of occluded patches (0.4 ml per patch). All guinea pigs (10 per group at each concentration) received a total of ten 6-hr induction exposures over a 22 day period. In addition, a group of guinea pigs were treated with dry patches only and served as the naive control group. Two weeks after the last induction treatment guinea pigs induced with the combination were challenged with 3 concentrations of the combination in distilled water (1000, 5000 and 15000 ppm a.i.), those induced with 886 were challenged with 3 concentrations of 886 in distilled water (100, 250 and 750 ppm a.i.) and those induced with 573 alone were challenged with 3 concentrations of 573 in distilled water (1000, 5000 and 15000 ppm a.i.). Twenty-four (24) and 48 hr after the challenge doses, the application sites were examined for erythema reactions and graded from 0 to 3 in accordance with a pre-established scoring system. Reactions graded 1 or greater were judged to be skin sensitization reactions.
^a Guinea pigs received ten (6 hr.) induction exposures of the ten
materials (0.4 ml per exposure) over a 22 day period.
^b All guinea pigs received 0.4 ml of challenge doses as specified tw
weeks after the last induction dose.
^c Guinea pigs received sham treatment only.

[1] = tested on: mixture of the following 12 microorganisms: Escherichia coli, Candida albicans, Pseudomonas oleovarans, Pseudomonas aeruginosa, Staphylococcus aureus …; assay: Growth inhibition / minimum inhibitory concentration (MIC) by 2-fold serial dilutions in Trypticase Soy Broth, 3 inoculations; assay type: cell-based; for Growth after inoculation: key: -: growth inhibited; +: growth not inhibited
Method: (§1) Each single culture was inoculated to TSB agar slants and incubated for 2 days at 30° C. for C. albicans and all bacteria except E. coli and S. aureus, which were at 37° C., and incubated for 10-14 days at 25° C. for fungal cultures. The bacteria and fungi were then washed off the slants with phosphate buffer (0.125 M, pH 7.2) and inoculated into each test tube containing a given concentration and ratio of 573 and 886 to make final cell concentration of about 2×10^7 bacteria and 2×10^6 fungi per ml. […] Seven days after inoculation, 5 microliter of sample from each test tube (containing about 10^5 bacteria and 10^4 fungi from original inoculation) was removed and assessed for viable organisms by 1:50 dilution into TSB medium and checked for regrowth. No viable organisms were detected from the test tubes where MICs were observed. […] Each test tube was reinoculated 2 more times (a total of 3 inoculations) to determine the capacity and the longlasting activity of the combinations.
(§2) As shown, a wide range of concentration and ratios was tested. More importantly all the critical end-point activities for the combinations were covered. […] Thus, the end-point activities are based on the minimum concentrations of a given ratio of combination product that inhibit all three inoculations.

[2] = as above; assay type: cell-based; settings: read-out: End-point activity (MIC) QA (573 alone)
Method: as §1, §2

[3] = Expt. 1, all three inoculations
[4] = Expt. 2, all three inoculations

## Cn1sccc1=O [compound 573, 2-methyl-4-isothiazolin-3-one]
Skin of guinea pigs; 5000 and 15000 ppm induction, 1000, 5000 and 15000 ppm challenge
  Overall incidence of responses: 7 out of a possible 60 responses
Skin of guinea pigs; induction 5000 and 15000 ppm a.i., challenge 1000 ppm a.i.
  Erythema: no erythema was observed
Skin of guinea pigs; induction 5000 ppm, challenge 1000 ppm (573)
  Erythema responses of 1 or greater at 24 and/or 48 hours: 0/10
Skin of guinea pigs; induction 5000 ppm, challenge 5000 ppm (573)
  Erythema responses of 1 or greater at 24 and/or 48 hours: 1/10
Skin of guinea pigs; induction 5000 ppm, challenge 15000 ppm (573)
  Erythema responses of 1 or greater at 24 and/or 48 hours: 2/10
Skin of guinea pigs; induction 15000 ppm, challenge 1000 ppm (573)
  Erythema responses of 1 or greater at 24 and/or 48 hours: 0/10
Skin of guinea pigs; induction 15000 ppm, challenge 5000 ppm (573)
  Erythema responses of 1 or greater at 24 and/or 48 hours: 1/10
Skin of guinea pigs; induction 15000 ppm, challenge 15000 ppm (573)
  Erythema responses of 1 or greater at 24 and/or 48 hours: 3/10
Skin of guinea pigs; induction 30000 ppm, challenge 1000 ppm
  Erythema responses of 1 or greater at 24 and/or 48 hours: 1/9
Skin of guinea pigs; induction 30000 ppm, challenge 5000 ppm
  Erythema responses of 1 or greater at 24 and/or 48 hours: 2/9
Skin of guinea pigs; induction 30000 ppm, challenge 15000 ppm
  Erythema responses of 1 or greater at 24 and/or 48 hours: 3/9
Skin of guinea pigs; naive control (sham induction), challenge 15000 ppm 573
  Erythema responses of 1 or greater at 24 and/or 48 hours: No erythema was observed and 0/10
[1]; Expt. 1, 1st inoculation, 573(A) 0.5 ppm
  Growth after inoculation: +
[1]; Expt. 1, 1st inoculation, 573(A) 1.0 ppm
  Growth after inoculation: +
[1]; Expt. 1, 1st inoculation, 573(A) 2.0 ppm
  Growth after inoculation: +
[1]; Expt. 1, 1st inoculation, 573(A) 3.9 ppm
  Growth after inoculation: +
[1]; Expt. 1, 1st inoculation, 573(A) 9.8 ppm
  Growth after inoculation: +
[1]; Expt. 1, 1st inoculation, 573(A) 15.6 ppm
  Growth after inoculation: +
[1]; Expt. 1, 1st inoculation, 573(A) 31.2 ppm
  Growth after inoculation: +
[1]; Expt. 1, 1st inoculation, 573(A) 62.5 ppm
  Growth after inoculation: +
[1]; Expt. 1, 1st inoculation, 573(A) 125.0 ppm
  Growth after inoculation: +
[1]; Expt. 1, 1st inoculation, 573(A) 250.0 ppm
  Growth after inoculation: -
[1]; Expt. 1, 1st inoculation, 573(A) 500.0 ppm
  Growth after inoculation: -
[1]; Expt. 1, 2nd inoculation, 573(A) 0.5 ppm
  Growth after inoculation: +
[1]; Expt. 1, 2nd inoculation, 573(A) 1.0 ppm
  Growth after inoculation: +
[1]; Expt. 1, 2nd inoculation, 573(A) 2.0 ppm
  Growth after inoculation: +
[1]; Expt. 1, 2nd inoculation, 573(A) 3.9 ppm
  Growth after inoculation: +
[1]; Expt. 1, 2nd inoculation, 573(A) 9.8 ppm
  Growth after inoculation: +
[1]; Expt. 1, 2nd inoculation, 573(A) 15.6 ppm
  Growth after inoculation: +
[1]; Expt. 1, 2nd inoculation, 573(A) 31.2 ppm
  Growth after inoculation: +
[1]; Expt. 1, 2nd inoculation, 573(A) 62.5 ppm
  Growth after inoculation: +
[1]; Expt. 1, 2nd inoculation, 573(A) 125.0 ppm
  Growth after inoculation: +
[1]; Expt. 1, 2nd inoculation, 573(A) 250.0 ppm
  Growth after inoculation: +
[1]; Expt. 1, 2nd inoculation, 573(A) 500.0 ppm
  Growth after inoculation: -
[1]; Expt. 1, 3rd inoculation, 573(A) 0.5 ppm
  Growth after inoculation: +
[1]; Expt. 1, 3rd inoculation, 573(A) 1.0 ppm
  Growth after inoculation: +
[1]; Expt. 1, 3rd inoculation, 573(A) 2.0 ppm
  Growth after inoculation: +
[1]; Expt. 1, 3rd inoculation, 573(A) 3.9 ppm
  Growth after inoculation: +
[1]; Expt. 1, 3rd inoculation, 573(A) 9.8 ppm
  Growth after inoculation: +
[1]; Expt. 1, 3rd inoculation, 573(A) 15.6 ppm
  Growth after inoculation: +
[1]; Expt. 1, 3rd inoculation, 573(A) 31.2 ppm
  Growth after inoculation: +
[1]; Expt. 1, 3rd inoculation, 573(A) 62.5 ppm
  Growth after inoculation: +
[1]; Expt. 1, 3rd inoculation, 573(A) 125.0 ppm
  Growth after inoculation: +
[1]; Expt. 1, 3rd inoculation, 573(A) 250.0 ppm
  Growth after inoculation: +
[1]; Expt. 1, 3rd inoculation, 573(A) 500.0 ppm
  Growth after inoculation: -
[1]; [3]
  End-point activity (MIC) Qa (573 in the mixture of 573 and 886): 500.0 ppm
[1]; Expt. 2, 1st inoculation, 573(A) 0.5 ppm
  Growth after inoculation: +
[1]; Expt. 2, 1st inoculation, 573(A) 1.0 ppm
  Growth after inoculation: +
[1]; Expt. 2, 1st inoculation, 573(A) 2.0 ppm
  Growth after inoculation: +
[1]; Expt. 2, 1st inoculation, 573(A) 3.9 ppm
  Growth after inoculation: +
[1]; Expt. 2, 1st inoculation, 573(A) 9.8 ppm
  Growth after inoculation: +
[1]; Expt. 2, 1st inoculation, 573(A) 15.6 ppm
  Growth after inoculation: +
[1]; Expt. 2, 1st inoculation, 573(A) 31.2 ppm
  Growth after inoculation: +
[1]; Expt. 2, 1st inoculation, 573(A) 62.5 ppm
  Growth after inoculation: +
[1]; Expt. 2, 1st inoculation, 573(A) 125.0 ppm
  Growth after inoculation: -
[1]; Expt. 2, 1st inoculation, 573(A) 250.0 ppm
  Growth after inoculation: -
[1]; Expt. 2, 1st inoculation, 573(A) 500.0 ppm
  Growth after inoculation: -
[1]; Expt. 2, 2nd inoculation, 573(A) 0.5 ppm
  Growth after inoculation: +
[1]; Expt. 2, 2nd inoculation, 573(A) 1.0 ppm
  Growth after inoculation: +
[1]; Expt. 2, 2nd inoculation, 573(A) 2.0 ppm
  Growth after inoculation: +
[1]; Expt. 2, 2nd inoculation, 573(A) 3.9 ppm
  Growth after inoculation: +
[1]; Expt. 2, 2nd inoculation, 573(A) 9.8 ppm
  Growth after inoculation: +
[1]; Expt. 2, 2nd inoculation, 573(A) 15.6 ppm
  Growth after inoculation: +
[1]; Expt. 2, 2nd inoculation, 573(A) 31.2 ppm
  Growth after inoculation: +
[1]; Expt. 2, 2nd inoculation, 573(A) 62.5 ppm
  Growth after inoculation: +
[1]; Expt. 2, 2nd inoculation, 573(A) 125.0 ppm
  Growth after inoculation: -
[1]; Expt. 2, 2nd inoculation, 573(A) 250.0 ppm
  Growth after inoculation: -
[1]; Expt. 2, 2nd inoculation, 573(A) 500.0 ppm
  Growth after inoculation: -
[1]; Expt. 2, 3rd inoculation, 573(A) 0.5 ppm
  Growth after inoculation: +
[1]; Expt. 2, 3rd inoculation, 573(A) 1.0 ppm
  Growth after inoculation: +
[1]; Expt. 2, 3rd inoculation, 573(A) 2.0 ppm
  Growth after inoculation: +
[1]; Expt. 2, 3rd inoculation, 573(A) 3.9 ppm
  Growth after inoculation: +
[1]; Expt. 2, 3rd inoculation, 573(A) 9.8 ppm
  Growth after inoculation: +
[1]; Expt. 2, 3rd inoculation, 573(A) 15.6 ppm
  Growth after inoculation: +
[1]; Expt. 2, 3rd inoculation, 573(A) 31.2 ppm
  Growth after inoculation: +
[1]; Expt. 2, 3rd inoculation, 573(A) 62.5 ppm
  Growth after inoculation: +
[1]; Expt. 2, 3rd inoculation, 573(A) 125.0 ppm
  Growth after inoculation: -
[1]; Expt. 2, 3rd inoculation, 573(A) 250.0 ppm
  Growth after inoculation: -
[1]; Expt. 2, 3rd inoculation, 573(A) 500.0 ppm
  Growth after inoculation: -
[1]; [4]
  End-point activity (MIC) Qa (573 in the mixture of 573 and 886): 125.0 ppm
[1]; at very low concentrations (<8 ppm)
  Contribution to the overall activity of 886: does not contribute significantly to the overall activity of 886
[2]; [3]
  MIC: 500 µg/mL
[2]; [4]
  MIC: 125 µg/mL
